# Test: ID50 determination of amastatin preparations (inhibitory activity)
# Type: biochemical
row,Substance,ID50 [µg/mL]
1,N-acetyl amastatin A2,450
2,amastatin A1,0.65
3,amastatin A2,0.54
4,amastatin A2 dimethyl ester,17
5,amastatin A3,1.0
6,amastatin B2,1.0
7,amastatin RB1,1.50
8,hydrochloric acid salt of amastatin A1 [HCl A1],0.75
